Assay results published in publication PMC7321108, “1-Hydroxyanthraquinones Containing Aryl Substituents as Potent and Selective Anticancer Agents” (Molecules, 2020).

Tests used:
[1] = system: SNB-19 glioblastoma cells; assay: MTT cytotoxicity assay, SNB-19; type: cell-based; settings: Homo sapiens, 72 h incubation, mean ± SEM of three experiments, read-out: Cytotoxicity (GI50) against SNB-19
Outline: (§1)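 Viability is measured by MTT reduction after 72 h of continuous compound treatment in RPMI-1640 containing 10% embryonic calf serum. GI50 reflects the concentration causing 50% cell death compared with compound-free wells.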

[2] = system: U-87MG glioblastoma cells; assay: MTT cytotoxicity assay, U-87MG; type: cell-based; settings: Homo sapiens, 72 h incubation, mean ± SEM of three experiments, read-out: Cytotoxicity (GI50) against U-87MG
Outline: as §1

T98G glioblastoma cells = assay: MTT cytotoxicity assay, T98G; type: cell-based; settings: Homo sapiens, 72 h incubation, mean ± SEM of three experiments, read-out: Cytotoxicity (GI50) against T98G
Outline: as §1

[3] = system: LNCAP prostate cancer cells; assay: MTT cytotoxicity assay, LNCAP; type: cell-based, human; settings: Homo sapiens, LNCaP, 72 h, 72 h incubation, mean ± SEM of three experiments, read-out: Cytotoxicity (GI50) against LNCAP
Outline: as §1

[4] = system: DU-145 prostate cancer cells; assay: MTT cytotoxicity assay, DU-145; type: cell-based, human; settings: Homo sapiens, DU-145, 72 h, 72 h incubation, mean ± SEM of three experiments, read-out: Cytotoxicity (GI50) against DU-145
Outline: as §1

[5] = system: MT-4 cells of T-cellular human leucosis; assay: MTT cytotoxicity assay, MT-4; type: cell-based; settings: MT4, 72 h incubation, mean ± SEM of three experiments, read-out: Cytotoxicity (GI50) against MT-4
Outline: as §1

[6] = system: MDA-MB-231 breast cancer cells; assay: MTT cytotoxicity assay, MDA-MB-231; type: cell-based; settings: Homo sapiens, 72 h incubation, mean ± SEM of three experiments, read-out: Cytotoxicity (GI50) against MDA-MB-231
Outline: as §1

SNB-19 cells [7] = assay: Cell cycle analysis by flow cytometry (Hoechst 33342), SNB-19; type: cell-based, human; settings: SNB-19, treated at GI50 concentration, 24 h
Experimental: Due to the fact that the implementation of the antitumor potential of the currently existing antitumor agents is carried out by acting on various biological targets, at the next stage we performed the cell cycle analysis and DNA synthesis. Cell cycle analysis of 1-hydroxy-4-phenyl-9,10-anthraquinone 13, 1-hydroxy-4-(2,3-dimethoxyphenyl)-9,10- anthraquinone 16, 1-hydroxy-4-(furan-3-yl)-9,10-anthraquinone 23 and 1-hydroxy- 2-(2,3-dimethoxyphenyl)-9,10-anthraquinone 28 against SNB-19 cells for 24 h produced interesting results. After examining the data for compounds 13 and 16 (Table 3, Figure 4C,D), good number of cells are distributed in S phase, i.e., initiated DNA replication mechanism and also in G0/G1 phase, i.e., initial phase of cell cycle. G1 and G2 are the growth phases in cell cycle analysis, whereas S phase is a synthetic phase wherein DNA replication and DNA synthesis take place. The 2-aryl substituted compound 28 initiated the G0/G1 phase in analogy with doxorubicin and mitomycin. […] Further, compounds play a vital role in controlling the regulation of Sub-G1 and G2/M phases. Some difference in the mechanism of operation of 4-aryl substituted 13,16 and 2-aryl substituted 9,10-anthraquinones 28 has been observed during the progression of cell cycle like: S phase was highly disturbed by 13; G0/G1 phase was highly disturbed by 28. […] This observation can be explained by the influence on the cell repair systems that respond to the intercalation of compounds in DNA. […] Further, mitoxantrone promotes the arrest of S phase of cell cycle.
For cell cycle analysis cells were seeded in 6-well plates (30,000 per plate) and incubate for adhesion for 24 h. […] Cells were washed with PBS twice, harvested, pelleted and resuspended in 0.5 mL of PBS. For staining the Hoechst 33342 Ready Flow Reagent (Invitrogen) was used according to the instruction. CytoFLEX flow cytometer (Beckman Coulter) was used for analysis. The results are presented as a percentage of cell population standing in different stages of the cell cycle.

SNB-19 cells [8] = assay: DNA synthesis investigation (BrdU/PI flow cytometry), SNB-19; type: cell-based, human; settings: SNB-19, treated at GI50 concentration, 24 h, BrdU 30 min
Experimental: (§2) Cell cycle analysis was performed by Flow Cytometry using BrdU and PI staining [63]. For this experiment cells were seeded in 6-well plates (30,000 per plate) and incubate for adhesion for 24 h. […] For the next step the BrdU stock was added at a final concentration of 30 µM and cells were incubated for 30 min. Cells were washed with PBS, harvested using trypsine and resuspended at 0.3 mL of PBS. Permeabilization of cell membrane was performed as follows: 0.7 mL of ice-cold 100% EtOH was added into each sample, mixed gently and incubate at 4 °C for 1 h. Cells were pelleted and supernatant was removed completely. Then 0.5 mL of 2 N HCl/0.5% Triton X-100 was added and samples were incubated 30 min at room temperature. Cells were pelleted again, supernatant was removed. The pellet was resuspended in 0.5 mL of 0.1 M sodium tetraborate for 2 min and cells were pelleted again, washed with 150 µL of PBS/1% BSA and resuspended in 50 µM 0.5% Tween 20/1% BSA/PBS. […] After that the samples were resuspended in 0.5 mL of PBS containing 10 mg/mL RNAse A and 20 mg/mL PI. Samples were incubated at room temperature for 30 min and analyzed immediately or store at 4 °C. CytoFLEX flow cytometer (Beckman Coulter) was used for analysis. The results are presented as a percentage of cell population standing in DNA synthesis process.

DU-145 cells = assay: DNA synthesis investigation (BrdU/PI flow cytometry), DU-145; type: cell-based, human; settings: DU-145, treated at GI50 concentration, 24 h, BrdU 30 min
Experimental: as §2

SMILES: O=C1c2ccccc2C(=O)c2c(-c3ccccc3)ccc(O)c21 [Compound 13, 1-Hydroxy-4-phenylanthracene-9,10-dione]
- GI50 [1]: 24.3 ± 1.08 µM
- GI50 [2]: > 100 µM
- GI50 (T98G glioblastoma cells): 14.1 ± 0.65 µM
- GI50 [3]: 24 ± 1.47 µM
- GI50 [4]: 1.1 ± 0.19 µM
- GI50 [5]: 71 ± 0.7 µM
- GI50 [6]: 31.2 ± 1.65 µM
- Population (% Cell Distribution) G0/G1 (SNB-19 cells [7]): 29.0%
- Population (% Cell Distribution) G2/M (SNB-19 cells [7]): 13.9%
- Population (% Cell Distribution) S (SNB-19 cells [7]): 48.5%
- Population (% Cell Distribution) Sub-G1 (SNB-19 cells [7]): 4.0%
- Population (% Cell Distribution) Super-G2 (SNB-19 cells [7]): 4.6%
- Population (% Cell Distribution) DNA Synthesis (SNB-19 cells [8]): 28.63%
- Population (% Cell Distribution) DNA Synthesis (DU-145 cells): 6.83%
- melting point: 207.3 °C (dec.)

SMILES: COc1cccc(-c2ccc(O)c3c2C(=O)c2ccccc2C3=O)c1OC [Compound 16, 1-(2,3-Dimethoxyphenyl)-4-hydroxyanthracene-9,10-dione]
- GI50 [1]: 9.7 ± 0.41 µM
- GI50 [2]: > 100 µM
- GI50 (T98G glioblastoma cells): 25.1 ± 1.04 µM
- GI50 [3]: > 100 µM
- GI50 [4]: 5.4 ± 0.17 µM
- GI50 [5]: > 100 µM
- GI50 [6]: 16.5 ± 0.88 µM
- Population (% Cell Distribution) G0/G1 (SNB-19 cells [7]): 36.6%
- Population (% Cell Distribution) G2/M (SNB-19 cells [7]): 18.6%
- Population (% Cell Distribution) S (SNB-19 cells [7]): 34.3%
- Population (% Cell Distribution) Sub-G1 (SNB-19 cells [7]): 3.0%
- Population (% Cell Distribution) Super-G2 (SNB-19 cells [7]): 7.6%
- Population (% Cell Distribution) DNA Synthesis (SNB-19 cells [8]): 28.67%
- Population (% Cell Distribution) DNA Synthesis (DU-145 cells): 27.22%
- melting point: 213.6 °C (dec.)
